Results on two compounds are retold here after patent publication US20020138123A1, “Medical electrical leads and indwelling catheters with enhanced biocompatibility and biostability” (Medtronic, Inc., priority 1998, published 2002).

Format in all cases: cell-based
The test system of assay [1] is IL-8. Briefly: Cytokine analysis, in vitro expression of IL-8. Conditions: human primary monocytes; DEX 2.5, 0.25, 0.025 μg/ml; methotrexate 50, 5, 0.5 μg/ml; dose- and incubation time-dependent.
Procedure: (§1) In order to assess the in vitro expression of IL-1α and IL-8, human primary monocytes were incubated with various concentrations of DEX (2.5, 0.25, and 0.025 μg/ml) and methotrexate (50, 5, and 0.5 μg/ml).
The subject of assay [2] is IL-1α. The assay can be described thus: Cytokine analysis, in vitro expression of IL-1α. The following applies: human primary monocytes; DEX 2.5, 0.25, 0.025 μg/ml; methotrexate 50, 5, 0.5 μg/ml; dose- and incubation time-dependent.
Procedure: as §1
Assay [3] concerns human Mo/MØs. The assay can be described thus: Morphology of Mo/MØ monolayers on polyetherurethane cultured with DSP (OM, SEM). The following applies: human Mo/MØs on PEU cultured with DSP in media, versus standard media.
Procedure: Blood was anticoagulated with 2 units/ml sodium heparin (Upjohn Co., Kalamazoo, Mich.). Mononuclear cells (lymphocytes, monocytes) were isolated within 15 minutes by a one-step density gradient centrifugation procedure using Isopaque-1077 (a density gradient solution) according to a modified Boyum's method (Boyum et al., Blood Separation and Plasma Fractionation, 217-239, Wiley-Liss, Inc. (1991)). The mononuclear cells were harvested and washed twice with cold Hanks balanced salt solution (HBSS) without Ca^2+ and Mg^2+ to minimize cell aggregation. The cells were then resuspended in standard media (RPMI-1640, 10% Fetal bovine serum, 0.2M L-glutamine, 10 Ul/ml Penicillin-G, and 0.1 mg/ml Streptomycin). The cell suspension was seeded into several plastic tissue culture flasks and incubated in the presence of 5% CO2 at 37° C. for 1 hour (Ackerman et al., J. Immunol., 20, 1372-1374 (1978)). After this incubation, adherent (monocytes) were gently scrapped from the surface and resuspended in standard media. Nonadherent cells (lymphocytes) contained in the supernatant were recovered into sterile tubes, and the remaining nonadherent cells washed off with cold HBSS. […] The polymer surfaces were also evaluated using SEM following the 10-day treatment with FeCl2. […]

As for `CN(Cc1cnc2nc(N)nc(N)c2n1)c1ccc(C(=O)N[C@@H](CCC(=O)O)C(=O)O)cc1` [methotrexate], the IL-8 inhibition entry in assay [1] was “higher rate of IL-1 and IL-8 inhibition”. Further, the IL-1 inhibition entry in assay [2] was “higher rate of IL-1 and IL-8 inhibition”.

As for `C[C@@H]1C[C@H]2[C@@H]3CCC4=CC(=O)C=C[C@]4(C)[C@@]3(F)[C@@H](O)C[C@]2(C)[C@@]1(O)C(=O)COP(=O)(O)O` [DSP, dexamethasone sodium phosphate], in assay [3], the “cell size of Mo/MØ monolayers (OM)” value is listed as “no increase in cell size”.
